Where two headings read alike, the source gives them in different places.
Key:
Type in all cases: cell-based
[1] = system: SH-SY5Y human neuroblastoma cells; experiment: Protection against 6-OHDA-induced cell death, condition B (no fetal bovine serum); details: preincubated 1 hour, 6-OHDA 50 μM 24 hours, read-out: Protect. 6-OHDA (−FBS) (minimum concentration with neuroprotective effect)
Excerpt: (§1) The aim of this experiment is to determine the protective effect of the compounds of formula (1) against the toxicity caused by 6-OHDA. This toxin induces a cell death similar to which occurs in Parkinson's disease, destroying dopaminergic neurons (“MPTP and 6-hydroxydopamine-induced neurodegeneration as models for Parkinson's disease: neuroprotective strategies”; Grunblatt E, et al.; J Neurol. 2000 Apr; 247 Suppl 2:II95-102).
(§2) Two or three days before the experiment, the SH-SY5Y human neuroblastoma cells are seeded into 96-well culture plate at a density of 10^4 cells/well. Cells are exposed to the treatment with 6-OHDA and, finally, cell death is measured by LDH quantification. As positive control we used NAC.
• B) NAC and the compound of formula (I) are preincubated during 1 hour before the treatment with 6-OHDA 50 μM during 24 hours. The assay is performed in a medium without any fetal bovine serum.
(§3) For each compound the minimum concentration of compound of formula (I) at which a neuroprotective effect is shown.

[2] = system: Aβ (1-40) secretion by CHO7W cells (stably transfected with human APP751 wt cDNA); experiment: Inhibition of Aβ(1-40) secretion (ELISA, cellular supernatants); details: Aβ 1-40 ELISA; for minimal effective concentration: read-out: Inhibition secretion beta-amyloid (minimum concentration)
Excerpt: To quantitate Aβ secretion ELISA-based method was used. The assay consists in detection of antigen by selective monoclonal anti-Aβ-antibodies at two different epitopes forming a “Sandwich-complex”, that is detected by colorimetric measure due to the binding of a secondary antibody conjugated with peroxidase that catalyses the conversion of a substrate or chromogen, TMB, into a coloured product, directly proportional to the peptide quantity in the sample. The Aβ production has been analyzed by ELISA, using a colorimetric commercial kit: Immunoassay Kit Human β Amyloid 1-40 (Biosource).
Aβ (1-40) were quantified from cellular supernatants. An APP-transfected cell line has been employed for the experiments: CHO7W (stably transfected with human APP751 wt cDNA). The cells were grown in a culture medium consisting of DMEM supplemented with 2% Fetal bovine serum, 1% penicillin-streptomycin, 1% L-glutamine and 200 μg/ml G418. Cells are seeded in 96-well culture microplate, at 5000 cells/well and treatment with different compounds at different concentrations is performed 24 hour after seeding.
OM99-2 (H-5108, Bachem), a BACE inhibitor, was used as Aβ secretion reduction positive control in all the Aβ secretion studies. The cells were treated with this compound at 3 μM concentration, culture media were collected at 24 hours.

SH-SY5Y cells = experiment: Neuroprotection against Aβ25-35 toxicity (LDH assay); details: Homo sapiens, pre-treated 1 hour, 200 μM Aβ25-35 24 hours, read-out: Protect. beta-Amyloid25-35 (minimum concentration showing neuroprotection)
Method: In order to evaluate potential neuroprotection of compounds, SH-SY5Y cells, cultured in 96-well plates, were pre-treated for 1 hour with the compound at different concentrations and then exposed 24 hours to 200 μM Aβ25-35 (Neosystem) to induce extensive oxidative stress and cell death. The ability of the compound of protecting against this toxicity is then evaluated by measuring intracellular LDH, using the colorimetric LDH assay.
It is widely accepted that the neurotoxic activity of Aβ resides within amino acids 25-35 (see e.g. Yankner B A et al., (1990) Neurotrophic and neurotoxic effects of amyloid β protein: reversal by tachykinin neuropeptides; Science 250:279-282).

[3] = system: SH-SY5Y human neuroblastoma cells; experiment: Protection against hydrogen peroxide-induced cell death (LDH); details: compound 1 h before H2O2 100 μM, 24 h; for minimal effective concentration: Homo sapiens, SH-SY5Y, read-out: Protect. H2O2 (minimum concentration for which protection was determined)
Method: The aim of this assay is to determine the neuroprotective effect of the compounds of formula (I), when human neuroblastoma cells are exposed to oxidative stress induced by hydrogen peroxide, which is highly deleterious to the cell and its accumulation causes oxidation of cellular targets such as DNA, proteins, and lipids leading to mutagenesis and cell death.
SH-SY5Y human neuroblastoma cells are seeded into 96-well culture plate at a density of 10^4 cells/well. Cells are exposed to different concentrations of the compound one hour before the treatment with H2O2 100 μM during 24 h. 5 mM N-acetylcysteine (NAC), a known anti-oxidant agent was used as a positive control, and preincubated 1 hour before the treatment with H2O2. After 24 h, the medium is removed and cells attached to the bottom of the well are lysed by adding 50 μl of Triton X-100 1% in Krebs-Hepes during 5 minutes at room temperature. For LDH release quantification, Roche cytotoxicity detection kit (Cat. No. 11 644 793 001) was used.

[4] = system: SH-SY5Y human neuroblastoma cells; experiment: Toxicity: LDH activity release in SH-SY5Y cells; details: 24 h; for Maximum concentration tested for toxicity: increasing concentrations from 1 μM up to 1 mM
Method: The potential effects on cell viability of the assayed compounds are assayed in SH-SY5Y human neuroblastoma cells, by quantification of Lactate dehydrogenase (LDH) activity release. SH-SY5Y human neuroblastoma cells are seeded into 96-well culture plates at 10^4 cells/well. The medium is then removed and the cells incubated with different concentrations of the compounds during 24 h. The compounds are tested at increasing concentrations starting from 1 μM, in fresh culture medium, in order to find the minimum concentration at which the compounds are toxic, up to a maximum of 1 mM. After 24 h, the medium is removed and cells attached to the bottom of the well are lysed by adding 50 μl of Krebs-Hepes; Triton X-100 1% during 5 minutes at room temperature. For LDH release quantification, the Roche cytotoxicity detection kit (Cat.
No. 11 644 793 001) is used. The LDH activity is measured by its absorbance at 492 nm with reference wavelength 620 nm.
In Table 1, for each compound the maximum concentration at which toxicity was tested is indicated in the second column. In the third column, it is indicated whether at this maximum concentration the compound was toxic or not. All the compounds, with the exception of Compound 3, resulted non-toxic at the concentration for which activity was found, in most of the cases even at a 1000-fold concentration. Thus, the compounds may be considered non-toxic.

[5] = system: SH-SY5Y human neuroblastoma cells; experiment: Protection against 6-OHDA-induced cell death, condition A (10% foetal bovine serum); details: preincubated 2 hours, 6-OHDA 75 μM 16 hours, read-out: Protect. 6-OHDA (+ FBS) (minimum concentration with neuroprotective effect)
Excerpt: as §1, §2
• A) NAC and the compound of formula (I) are preincubated during 2 hours before the treatment with 6-OHDA 75 μM during 16 hours. The assay is performed in medium containing 10% Foetal bovine serum.
as §3

| Compound | minimal effective concentration [1] [µM] | Inhibition secretion beta-amyloid (minimum concentration) [2] [mM] | minimal effective concentration (SH-SY5Y cells) [µM] | minimal effective concentration [3] [µM] | Maximum concentration tested for toxicity [4] [µM] | Toxic at maximum concentration tested (Yes/No) ([4]; at 1 mM) | minimal effective concentration [5] [µM] | Toxicity at the concentration for which activity was found [4] | Toxic at maximum concentration tested (Yes/No) ([4]; at 10 μM) | minimal effective concentration [2] [µM] | Protect. H2O2 (minimum concentration for which protection was determined) [3] [nM] | minimal effective concentration ([2]; Homo sapiens, CHO-7W) [µM] | Toxic at maximum concentration tested (Yes/No) ([4]; at 1000 μM) | Toxic at maximum concentration tested (Yes/No) ([4]; at 100 μM) |
| --- | --- | --- | --- | --- | --- | --- | --- | --- | --- | --- | --- | --- | --- | --- |
| COc1cc(C=NO)nc2c1ccc1cccnc12 [Compound 1, 4-Methoxy-[1,10]phenanthroline-2-carbaldehyde oxime] | 0.5 | 0.01 | 5 | 0.05 | 1000 | Yes | 0.5 |  |  |  |  |  |  |  |
| ON=Cc1cc(Cl)c2ccc3cccnc3c2n1 [Compound 2, 4-Chloro-[1,10]phenanthroline-2-carbaldehyde oxime] | 0.5 | 1 | 10 | 0.05 | 1000 | Yes | 0.5 |  |  |  |  |  |  |  |
| O=Cc1cc(Cl)c2ccc3cccnc3c2n1 [Compound 3, 4-Chloro-[1,10]phenanthroline-2-carbaldehyde] | 10 |  |  | 10 | 10 |  |  | exception | Yes |  |  |  |  |  |
| CCCSc1cc(/C=N/O)nc2c1ccc1cccnc12 [Compound 5, 4-Propylsulfanyl-[1,10]phenanthroline-2-carbaldehyde oxime] | 0.5 |  |  |  | 1000 | Yes | 0.05 |  |  | 0.001 | 5 |  |  |  |
| CCOc1cc(/C=N/O)nc2c1ccc1cccnc12 [Compound 6, 4-Ethoxy-[1,10]phenanthroline-2-carbaldehyde oxime] | 0.5 |  | 10 |  | 1000 | Yes | 0.05 |  |  | 0.01 | 5 |  |  |  |
| NCCOc1cc(/C=N/O)nc2c1ccc1cccnc12 [Compound 9, 4-(2-Amino-ethoxy)-[1,10]phenanthroline-2-carbaldehyde oxime] | 5 | 10 | 5 | 5 | 10 |  | 5 |  | No |  |  |  |  |  |
| CN(C)C(=O)CSc1cc(C=NO)nc2c1ccc1cccnc12 [Compound 12, 2-[2-(Hydroxyimino-methyl)-[1,10]phenanthrolin-4-ylsulfanyl]-N,N-dimethyl-acetamide] | 0.5 |  | 10 | 0.1 | 1000 |  | 0.1 |  |  |  |  | 1 | No |  |
| ON=Cc1cc(SCC(F)(F)F)c2ccc3cccnc3c2n1 [Compound 13, 4-(2,2,2-Trifluoro-ethylsulfanyl)-[1,10]phenanthroline-2-carbaldehyde oxime] | 5 |  | 5 | 0.5 | 1000 |  | 0.5 |  |  |  |  | 10 | No |  |
| COC(=O)CSc1cc(C=NO)nc2c1ccc1cccnc12 [Compound 14, [2-(Hydroxyimino-methyl)-[1,10]phenanthrolin-4-ylsulfanyl]-acetic acid methyl ester] | 0.5 |  | 10 | 0.05 | 1000 |  | 0.5 |  |  |  |  | 0.01 | Yes |  |
| ON=Cc1cc(Sc2nccs2)c2ccc3cccnc3c2n1 [Compound 15, 4-(Thiazol-2-ylsulfanyl)-[1,10]phenanthroline-2-carbaldehyde oxime] |  |  |  | 0.5 | 100 |  |  |  |  |  |  | 10 |  | Yes |
| Cc1cnc(Sc2cc(C=NO)nc3c2ccc2cccnc23)s1 [Compound 17, 4-(5-Methyl-thiazol-2-ylsulfanyl)-[1,10]phenanthroline-2-carbaldehyde oxime] |  |  |  | 5 | 1000 |  |  |  |  |  |  | 10 | Yes |  |
| ON=Cc1cc(Sc2nncs2)c2ccc3cccnc3c2n1 [Compound 19, 4-([1,3,4]Thiadiazol-2-ylsulfanyl)-[1,10]phenanthroline-2-carbaldehyde oxime] |  |  |  | 0.5 | 10 |  |  |  | Yes |  |  | 1 |  |  |
| CSc1cc(C=O)nc2c1ccc1cccnc12 [Compound 20, 4-Methylsulfanyl-[1,10]phenanthroline-2-carbaldehyde] |  |  |  | 0.5 | 10 |  |  |  | Yes |  |  | 10 |  |  |
